Experimental findings from patent US20230174608A1, “Polypeptide Derivative Having Dual Receptor Agonistic Action and Use Thereof” (TIANJIN INSTITUTE OF PHARMACEUTICAL RESEARCH CO., LTD., priority 2020, published 2023) are described below.

Where a SMILES comes first, the peptide text is derived from it.

One test deals with T1, GLP-1R (Homo sapiens, UniProt P43220).
T1 construct: expressed in transfected cells
The experiment in a line: GLP-1 receptor-mediated cAMP production in vitro. Type of test: cell-based. Conditions: HEK293 cell line stably expressing GLP-1R. In a few lines: (§1)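 HEK293 cells stably expressing human GLP-1R or GCGR are stimulated with compound for 30 min in the dark in serum-free medium with 0.5 mM IBMX, with test dilutions spanning 1 μM down to 10^−3 nM. cAMP is detected after a 60 min room-temperature reaction as the 665/615 nm ratio.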
On the technique in general: Cyclic AMP is a second messenger, typically raised through Gs and lowered through Gi signalling.

The target in another test is T2, GCGR (Homo sapiens, UniProt P47871).
T2 construct: expressed in transfected cells
The experiment in a line: GC receptor-mediated cAMP production in vitro. Type of test: cell-based. Conditions: HEK293 cell line stably expressing GCGR. The method in brief:
as §1

The test system of test [1] is glucose loaded normal mice. The test can be described thus: Glucose loading test on normal mice after single administration. The note with it: for Blood glucose reduction rate (%) / Blood glucose level after glucose loading: 30 nmol/kg single dose; for Blood glucose reduction rate (%): after glucose loading, versus model control group; for Blood glucose level after glucose loading: glucose 2.5 g/kg intragastric 60 min after administration, measured 30 min after loading; for Blood glucose level after glucose loading / Fasting blood glucose level: n=5; for Fasting blood glucose level: normal mice fasted 6 h, 30 nmol/kg group. The format is in vivo, Kunming mice. In a few lines:
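Male Kunming mice (20-22 g), 5 per group, fasted 6 h, received compound or semaglutide at 30 nmol/kg or saline. Glucose 2.5 g/kg given intragastrically 60 min post-dose; blood glucose measured 30 min after glucose loading.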

Test [2] has as its system diet-induced obesity (DIO) mice. The experiment in a line: DIO model mice, weight after 2 weeks of administration. Conditions: 30 nmol/kg s.c. once a day, 14 days. The format is in vivo, C57BL/6N mice. An excerpt: Method: C57BL/6N mice were fed with H10060 high-fat diets to obtain diet-induced obesity (DIO) models, and mice in a control group (n=5) were fed with standard diets. One day before the first administration, the mice in the model group were randomly divided into 6 groups according to their weights (within a range of 40.5-50.5 g), i.e., a model control group, a positive control group, and test compound groups (dgc003, dgc004, dgc010, and dgc017), respectively, 5 mice in each group, which were administered once a day by subcutaneous injection. Saline was subcutaneously injected into each mouse in the blank control group and the model control group every day. The administration was performed for 14 days. The positive control drug and the test compounds were administered at a dose of 30 nmol/kg, and the administration volume for each group was 0.005 mL/g weight. The mice were weighed before each administration, and 72-h food intake was weighed every three days.

T1 sequence (P43220 24-463, species assumed): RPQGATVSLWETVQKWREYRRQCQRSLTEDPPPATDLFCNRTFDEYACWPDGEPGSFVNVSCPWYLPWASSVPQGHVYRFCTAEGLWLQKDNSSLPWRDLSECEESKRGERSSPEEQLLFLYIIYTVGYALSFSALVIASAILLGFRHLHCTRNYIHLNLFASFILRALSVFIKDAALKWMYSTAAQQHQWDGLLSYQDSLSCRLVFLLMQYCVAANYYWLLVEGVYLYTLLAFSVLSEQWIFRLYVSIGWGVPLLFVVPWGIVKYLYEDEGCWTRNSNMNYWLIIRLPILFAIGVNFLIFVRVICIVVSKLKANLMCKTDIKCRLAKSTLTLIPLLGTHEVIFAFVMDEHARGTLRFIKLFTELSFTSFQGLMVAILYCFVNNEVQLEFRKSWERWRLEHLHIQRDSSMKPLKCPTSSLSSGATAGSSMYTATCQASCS
T2 sequence (P47871 26-477, species assumed): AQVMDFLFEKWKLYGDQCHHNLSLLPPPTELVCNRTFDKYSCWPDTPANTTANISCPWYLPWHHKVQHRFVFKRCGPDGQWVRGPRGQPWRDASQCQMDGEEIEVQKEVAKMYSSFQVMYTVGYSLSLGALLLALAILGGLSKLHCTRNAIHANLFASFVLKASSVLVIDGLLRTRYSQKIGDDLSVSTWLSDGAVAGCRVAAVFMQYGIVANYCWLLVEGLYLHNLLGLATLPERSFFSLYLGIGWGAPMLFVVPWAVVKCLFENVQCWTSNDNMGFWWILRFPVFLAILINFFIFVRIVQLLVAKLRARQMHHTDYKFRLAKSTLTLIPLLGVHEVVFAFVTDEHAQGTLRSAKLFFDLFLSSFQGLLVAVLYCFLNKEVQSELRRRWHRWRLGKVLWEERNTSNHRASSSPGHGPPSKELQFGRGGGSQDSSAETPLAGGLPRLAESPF

By EC50 is commonly meant the midpoint of the concentration-response curve. `CCCCCCCCCCCCCCCC(=O)N[C@@H](CCC(=O)N[C@@H](CCC(=O)NCCCC[C@H](NC(=O)[C@H](C)NC(=O)[C@H](C)NC(=O)[C@H](CCCNC(=N)N)NC(=O)[C@H](CCC(=O)O)NC(=O)[C@H](CCC(=O)O)NC(=O)[C@H](CC(C)C)NC(=O)[C@H](Cc1ccc(O)cc1)NC(=O)[C@H](CCCCN)NC(=O)[C@H](CO)NC(=O)[C@H](Cc1ccc(O)cc1)NC(=O)[C@H](CC(=O)O)NC(=O)[C@H](CO)NC(=O)[C@@H](NC(=O)[C@H](Cc1ccccc1)NC(=O)[C@@H](NC(=O)CNC(=O)[C@H](CCC(N)=O)NC(=O)C(C)(C)NC(=O)[C@@H](N)Cc1c[nH]cn1)[C@@H](C)O)[C@@H](C)O)C(=O)N[C@@H](CCC(=O)O)C(=O)N[C@@H](Cc1ccccc1)C(=O)N[C@H](C(=O)N[C@@H](C)C(=O)N[C@@H](Cc1c[nH]c2ccccc12)C(=O)N[C@@H](CC(C)C)C(=O)N[C@@H](CCC(=O)O)C(=O)N[C@@H](CO)C(=O)NCC(=O)NCC(N)=O)[C@@H](C)CC)C(=O)O)C(=O)O` [dgc010] (HELM PEPTIDE1{H.[Aib].Q.G.T.F.T.S.D.Y.S.K.Y.L.E.E.R.A.A.K.E.F.I.A.W.L.E.S.G.G.[am]}|PEPTIDE2{[CCCCCCCCCCCCCCCC(=O)[*:2]].[gGlu].[gGlu]}$PEPTIDE1,PEPTIDE2,20:R3-3:R2$$$V2.0; N-terminus assumed) showed an EC50 on GLP-1R of 0.537 nM. Further, the EC50 at GCGR amounted to 0.614 nM. Also, in test [1], the “Blood glucose reduction rate (%)” value is reported as 52.35%, the “Blood glucose level after glucose loading” value is given as 8.10 ± 1.13 mmol/L and the “Fasting blood glucose level” value stood at 3.78 ± 0.84 mmol/L. Moreover, in test [2], the “Weight decreasing rate by the last administration” value is 16.4%.

Take `CCCCCCCCCCCCCCCC(=O)N[C@@H](CCC(=O)NCCCC[C@H](NC(=O)[C@H](C)NC(=O)[C@H](C)NC(=O)[C@H](CCCCN)NC(=O)[C@H](CCC(=O)O)NC(=O)[C@H](CC(=O)O)NC(=O)[C@H](CC(C)C)NC(=O)[C@H](Cc1ccc(O)cc1)NC(=O)[C@H](CCCCN)NC(=O)[C@H](CO)NC(=O)[C@H](Cc1ccc(O)cc1)NC(=O)[C@H](CC(=O)O)NC(=O)[C@H](CO)NC(=O)[C@@H](NC(=O)[C@H](Cc1ccccc1)NC(=O)[C@@H](NC(=O)CNC(=O)[C@H](CCC(N)=O)NC(=O)C(C)(C)NC(=O)[C@@H](N)Cc1c[nH]cn1)[C@@H](C)O)[C@@H](C)O)C(=O)N[C@@H](CCC(=O)O)C(=O)N[C@@H](Cc1ccccc1)C(=O)N[C@H](C(=O)N[C@@H](C)C(=O)N[C@@H](Cc1c[nH]c2ccccc12)C(=O)N[C@@H](CC(C)C)C(=O)N[C@@H](CCC(=O)O)C(=O)NCC(=O)NCC(N)=O)[C@@H](C)CC)C(=O)O` [dgc017] (HELM PEPTIDE1{H.[Aib].Q.G.T.F.T.S.D.Y.S.K.Y.L.D.E.K.A.A.K.E.F.I.A.W.L.E.G.G.[am]}|PEPTIDE2{[CCCCCCCCCCCCCCCC(=O)[*:2]].[gGlu]}$PEPTIDE1,PEPTIDE2,20:R3-2:R2$$$V2.0; N-terminus assumed): at GLP-1R, a half-maximal effect (EC50) was put at 0.627 nM. The response at GCGR was half-maximal at 3.95 nM (EC50). Further, in test [1], the “Blood glucose reduction rate (%)” value was determined as 39.06%, the “Blood glucose level after glucose loading” value turned out to be 10.36 ± 1.87 mmol/L and the “Fasting blood glucose level” value was 3.72 ± 0.37 mmol/L. Also, in test [2], the “Weight decreasing rate by the last administration” value came out at 15.9%.
